Measurements published in PMC6445163, “Design, synthesis, and evaluation of novel 2-phenylpropionic acid derivatives as dual COX inhibitory-antibacterial agents” (Journal of Enzyme Inhibition and Medicinal Chemistry, 2017).
Converted amounts (≈) assume the structure as drawn.

What was measured:
[1] = tested on: Enterococcus faecalis (ATCC 29212); experiment: broth microdilution MIC (CLSI M07-A9), resazurin; type: cell-based; details: ATCC29212, 24 h
Experimental: (§1) Microbiological studies were performed according to following guides: CLSI reference […]-A9 broth microdilution method[49] for bacterial strains and EUCAST definitive (EDef 7.1) method[50] for Candida species. Synthesized compounds were tested for their in vitro growth inhibitory activity against Staphylococcus aureus (ATCC 25923), Enterococcus faecalis (ATCC 29212), Listeria monocytogenes (ATCC 1911), Klebsiella pneumoniae (NCTC 9633), Escherichia coli (ATCC 35218), E. coli (ATCC 25922) Candida albicans (ATCC 24433) Candida krusei (ATCC 6258) and Candida parapsilosis (ATCC 22019). Chloramphenicol and ketoconazole were used as control drugs. The cultures were obtained from the Mueller-Hinton broth (Difco) for the bacterial strains after overnight incubation at 37 °C. The yeasts were maintained in Roswell Park Memorial Institute (RPMI) after overnight incubation at 37 °C. […] Testing was carried out in Mueller-Hinton broth and RPMI at pH =7, and the two-fold serial dilutions technique was applied. The last well on the microplates containing only inoculated broth was kept as controls and the last well with no growth of microorganism was recorded to represent the minimum inhibitory concentration (MIC) expressed in μg/mL. For both the antibacterial and antifungal assays, the compounds were dissolved in DMSO. […] The completed plates were incubated for 24 h. At the end of the incubation, resazurin (20 μg/mL) was added into each well and plates were incubated for 2 h. MIC values were determined using a microplate reader at […]. Synthesized compounds (6a-6m) were evaluated for antimicrobial activity against various microorganisms such as Staphylococcus aureus (ATCC 25923), Enterococcus faecalis (ATCC 29212), Listeria monocytogenes (ATCC 1911), Klebsiella pneumoniae (NCTC 9633), Escherichia coli (ATCC 35218), E. coli (ATCC 25922)Candida albicans (ATCC 24433) Candida krusei (ATCC 6258) and Candida parapsilosis (ATCC 22019). […] Chloramphenicol and ketoconazole were used as standard drugs in the activity test. […] Besides, the compounds 6d, 6h, 6l and 6m indicated stronger antibacterial activity than the other compounds in the series.

[2] = tested on: Escherichia coli (ATCC 25922); experiment: broth microdilution MIC (CLSI M07-A9), resazurin; type: cell-based; details: ATCC25922, 24 h, read-out: MIC Ec-2
Experimental: as §1

[3] = tested on: Escherichia coli (ATCC 35218); experiment: broth microdilution MIC (CLSI M07-A9), resazurin; type: cell-based; details: for MIC: ATCC35218, 24 h, read-out: MIC Ec-1
Experimental: as §1

[4] = tested on: Klebsiella pneumoniae (NCTC 9633); experiment: broth microdilution MIC (CLSI M07-A9), resazurin; type: cell-based; details: 24 h
Experimental: as §1

[5] = tested on: Listeria monocytogenes (ATCC 1911); experiment: broth microdilution MIC (CLSI M07-A9), resazurin; type: cell-based; details: ATCC1911, 24 h
Experimental: as §1

[6] = tested on: Staphylococcus aureus (ATCC 25923); experiment: broth microdilution MIC (CLSI M07-A9), resazurin; type: cell-based; details: ATCC25923, 24 h
Experimental: as §1

COX-1 = target: T1, COX-1 (Ovis aries, UniProt P05979); experiment: fluorometric COX-1 inhibitor screening kit assay; type: biochemical; details: for SI (selectivity index): IC50 (COX-1)/IC50 (COX-2); for IC50: fluorometric kit, 25 °C; for Selectivity: isoform preferred according to SI
T1 construct: purchased Biovision K548-100
T1 sequence (P05979 25-600): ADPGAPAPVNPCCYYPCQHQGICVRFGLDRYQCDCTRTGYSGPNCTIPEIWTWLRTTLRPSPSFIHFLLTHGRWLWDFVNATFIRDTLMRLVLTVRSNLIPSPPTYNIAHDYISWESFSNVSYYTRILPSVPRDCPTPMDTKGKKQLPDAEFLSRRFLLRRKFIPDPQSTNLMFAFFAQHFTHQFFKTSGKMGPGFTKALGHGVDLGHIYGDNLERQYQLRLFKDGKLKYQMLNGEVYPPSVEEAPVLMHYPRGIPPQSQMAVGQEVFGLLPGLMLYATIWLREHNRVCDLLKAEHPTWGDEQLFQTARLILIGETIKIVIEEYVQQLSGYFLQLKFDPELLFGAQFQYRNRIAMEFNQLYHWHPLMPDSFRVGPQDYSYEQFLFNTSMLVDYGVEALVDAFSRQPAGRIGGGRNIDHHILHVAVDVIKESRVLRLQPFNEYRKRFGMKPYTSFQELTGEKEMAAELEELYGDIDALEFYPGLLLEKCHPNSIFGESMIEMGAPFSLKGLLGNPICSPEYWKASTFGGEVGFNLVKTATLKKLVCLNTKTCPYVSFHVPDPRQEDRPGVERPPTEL
Experimental: (§2) Inhibitory potency of the compounds against COX-1 and COX-2 enzymes was determined using fluorometric COX-1 and COX-2 inhibitor screening kits (Biovision, Zurich, Switzerland). Experimental protocol was followed as described in the guides of the supplier[47]^,[48]. All of the pipettings in the assay were performed by Biotek Precision robotic system (BioTek Instruments, Inc., Winooski, VT). […] Appropriate two points (T1 and T2) in the linear range of the plot were chosen, and the corresponding fluorescence values (RFU1 and RFU2) were obtained. The slope for all samples, including enzyme control (EC), by dividing the net ΔRFU (RFU2–RFU1) values by the time ΔT (T2–T1) were calculated by using following equation: % Relative inhibition=(Slope of EC-Slope of S/Slope of EC)×100
(§3) This initial in vitro assay was done with two concentrations (10^−3 and 10^−4 M) for all compounds. […] The IC50 value was calculated from the plots of enzyme activity against concentrations by applying regression analyses on GraphPad Prism Version 5 (GraphPad Software, La Jolla, CA).
(§4) Selectivity indexes (SI) were expressed as IC50 (COX-1)/IC50 (COX-2). Selectivity toward COX-2 decreases as the corresponding SI decreases while selectivity toward COX-1 isoform increases as the corresponding SI decreases.

COX-2 = target: T2, COX-2 (Homo sapiens, UniProt P35354); experiment: fluorometric COX-2 inhibitor screening kit assay; type: biochemical; details: 25 °C
T2 construct: purchased Biovision K547-100
T2 sequence (P35354 18-604): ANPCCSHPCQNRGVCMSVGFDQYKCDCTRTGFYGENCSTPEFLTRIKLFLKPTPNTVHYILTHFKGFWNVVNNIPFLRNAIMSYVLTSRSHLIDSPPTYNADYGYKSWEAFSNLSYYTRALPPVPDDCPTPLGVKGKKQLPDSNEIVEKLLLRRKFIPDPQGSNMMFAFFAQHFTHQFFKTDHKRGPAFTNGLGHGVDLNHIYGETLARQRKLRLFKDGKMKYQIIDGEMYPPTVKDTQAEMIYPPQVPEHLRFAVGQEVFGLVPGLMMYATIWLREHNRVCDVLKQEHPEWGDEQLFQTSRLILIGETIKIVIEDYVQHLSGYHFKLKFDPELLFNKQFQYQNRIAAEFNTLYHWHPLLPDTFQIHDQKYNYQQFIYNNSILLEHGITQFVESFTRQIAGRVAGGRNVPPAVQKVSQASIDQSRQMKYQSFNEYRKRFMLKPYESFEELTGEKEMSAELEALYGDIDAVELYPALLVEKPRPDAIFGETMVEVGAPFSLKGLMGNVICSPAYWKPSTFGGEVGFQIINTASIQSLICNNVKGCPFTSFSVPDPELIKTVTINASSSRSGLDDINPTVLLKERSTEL
Experimental: as §2, §3, §4

[7] = tested on: Candida albicans (ATCC 24433); experiment: broth dilution MIC (EUCAST EDef 7.1), resazurin; type: cell-based; details: ATCC24433, 24 h
Experimental: as §1

[8] = tested on: Candida krusei (ATCC 6258); experiment: broth dilution MIC (EUCAST EDef 7.1), resazurin; type: cell-based; details: Pichia kudriavzevii, ATCC6258, 24 h
Experimental: as §1

[9] = tested on: Candida parapsilosis (ATCC 22019); experiment: broth dilution MIC (EUCAST EDef 7.1), resazurin; type: cell-based; details: ATCC22019, 24 h
Experimental: as §1

SMILES	MIC [1]	MIC [2]	MIC Ec-1 ([3]; 24 h)	MIC [3]	MIC Kp [4]	MIC [5]	MIC [6]	SI (selectivity index) (COX-1)	IC50 (COX-1)	Selectivity (COX-1)	IC50 (COX-2)	MIC [7]	MIC [8]	MIC [9]	melting point
O=C(N[C@H](CO)[C@H](O)c1ccc([N+](=O)[O-])cc1)C(Cl)Cl [Chloramphenicol, reference compound]	6.25 µg/mL (≈ 19.3 µM)	6.25 µg/mL (≈ 19.3 µM)	6.25 µg/mL (≈ 19.3 µM)	6.25 µg/mL (≈ 19.3 µM)	12.5 µg/mL (≈ 38.7 µM)	12.5 µg/mL (≈ 38.7 µM)	6.25 µg/mL (≈ 19.3 µM)	–	–	–	–	–	–	–	–
Cc1ccc(C(C)C(=O)O)cc1 (centres unmarked) [Compound 4, 2-(4-methylphenyl) propionic acid]	50 µg/mL (≈ 304 µM)	50 µg/mL (≈ 304 µM)	–	25 µg/mL (≈ 152 µM)	50 µg/mL (≈ 304 µM)	50 µg/mL (≈ 304 µM)	50 µg/mL (≈ 304 µM)	0.59	38.2 µM	COX-1	64.3 µM	100 µg/mL (≈ 609 µM)	50 µg/mL (≈ 304 µM)	50 µg/mL (≈ 304 µM)	–
CC(C(=O)O)c1ccc(CSC2=NCCS2)cc1 (centres unmarked) [Compound 6a, 2-(4-(((4,5-Dihydrothiazol-2-yl)thio)methyl)phenyl)propanoic acid]	12.5 µg/mL (≈ 44.4 µM)	12.5 µg/mL (≈ 44.4 µM)	–	6.25 µg/mL (≈ 22.2 µM)	6.25 µg/mL (≈ 22.2 µM)	12.5 µg/mL (≈ 44.4 µM)	12.5 µg/mL (≈ 44.4 µM)	0.59	22.2 µM	COX-1	37.8 µM	100 µg/mL (≈ 355 µM)	100 µg/mL (≈ 355 µM)	100 µg/mL (≈ 355 µM)	154.2 to 156.3 °C
CC(C(=O)O)c1ccc(CSc2nccn2C)cc1 (centres unmarked) [Compound 6b, 2-(4-(((1-Methyl-1H-imidazol-2-yl)thio)methyl)phenyl)propanoic acid]	12.5 µg/mL (≈ 45.2 µM)	12.5 µg/mL (≈ 45.2 µM)	–	6.25 µg/mL (≈ 22.6 µM)	6.25 µg/mL (≈ 22.6 µM)	12.5 µg/mL (≈ 45.2 µM)	12.5 µg/mL (≈ 45.2 µM)	0.60	28.6 µM	COX-1	47.4 µM	100 µg/mL (≈ 362 µM)	100 µg/mL (≈ 362 µM)	50 µg/mL (≈ 181 µM)	–
CC(C(=O)O)c1ccc(CSc2nc[nH]n2)cc1 (centres unmarked) [Compound 6c, 2-(4-(((1H-1,2,4-Triazol-3-yl)thio)methyl)phenyl)propanoic acid]	12.5 µg/mL (≈ 47.5 µM)	12.5 µg/mL (≈ 47.5 µM)	–	6.25 µg/mL (≈ 23.7 µM)	12.5 µg/mL (≈ 47.5 µM)	12.5 µg/mL (≈ 47.5 µM)	12.5 µg/mL (≈ 47.5 µM)	0.53	19.5 µM	COX-1	36.7 µM	100 µg/mL (≈ 380 µM)	50 µg/mL (≈ 190 µM)	50 µg/mL (≈ 190 µM)	–
CC(C(=O)O)c1ccc(CSc2nncn2C)cc1 (centres unmarked) [Compound 6d, 2-(4-(((4-Methyl-4 H-1,2,4-triazol-3-yl)thio)methyl)phenyl)propanoic acid]	6.25 µg/mL (≈ 22.5 µM)	12.5 µg/mL (≈ 45.1 µM)	–	6.25 µg/mL (≈ 22.5 µM)	6.25 µg/mL (≈ 22.5 µM)	12.5 µg/mL (≈ 45.1 µM)	12.5 µg/mL (≈ 45.1 µM)	0.62	24.6 µM	COX-1	39.9 µM	50 µg/mL (≈ 180 µM)	50 µg/mL (≈ 180 µM)	50 µg/mL (≈ 180 µM)	–
CC(C(=O)O)c1ccc(CSc2nnnn2C)cc1 (centres unmarked) [Compound 6e, 2-(4-(((1-Methyl-1 H-tetrazol-5-yl)thio)methyl)phenyl)propanoic acid]	12.5 µg/mL (≈ 44.9 µM)	12.5 µg/mL (≈ 44.9 µM)	–	6.25 µg/mL (≈ 22.5 µM)	6.25 µg/mL (≈ 22.5 µM)	12.5 µg/mL (≈ 44.9 µM)	12.5 µg/mL (≈ 44.9 µM)	0.60	21.8 µM	COX-1	36.3 µM	50 µg/mL (≈ 180 µM)	50 µg/mL (≈ 180 µM)	50 µg/mL (≈ 180 µM)	–
CC(=O)N1CCN(c2ccc(OCC3COC(Cn4ccnc4)(c4ccc(Cl)cc4Cl)O3)cc2)CC1 (centres unmarked) [Ketoconazole, reference compound]	–	–	–	–	–	–	–	–	–	–	–	0.78 µg/mL (≈ 1.47 µM)	0.78 µg/mL (≈ 1.47 µM)	0.78 µg/mL (≈ 1.47 µM)	–
